What was measured:
[1] = molecular target: Tyk2 (Homo sapiens, UniProt P29597); assay: JAK kinase inhibition assay (EZ Reader, peptide substrate phosphorylation) - Tyk2; format: biochemical; details: Tyk2 kinase 1 nM; 8 concentration points, max 10 μM
Text: (§1) Assay for Identifying Inhibitory Effects of Compounds on JAK Kinases
(§2) Janus kinases (JAK), including JAK1, JAK2, JAK3 and Tyk2, transduce a cytokine-mediated signal through a JAK-STAT pathway. The kinases are 120-140 kDa in size and have 7 determined homology regions: JH1 to JH7. JH1 is an important region for enzymatic activity and has typical characteristics of tyrosine kinases. Phosphorylation of tyrosine leads to a change in the conformation of JAK protein, thereby promoting binding of substrate. The JAK-STAT system includes three main parts: receptors penetrating a cell membrane, Janus kinases binding to the receptors, and signal transducers and activators of transcription (STAT) for transmitting signals to a nucleus and DNA. When cytokines bind to receptors, JAK phosphorylates the receptors and attracts STAT proteins. The STAT proteins are also phosphorylated and combined with one another to form dimers. The dimers enter the nucleus and bind to DNA, thereby leading to gene transcription.
(§3) EZ Reader from PerkinElmer can be used to detect the phosphorylation of polypeptide substrates catalyzed by kinases. The device is based on microfluidic techniques, and can directly detect fluorescently labeled substrates and products. The separation step is achieved by controlling the pressure and electric field strength in the microfluidic chip. In kinase assays, a product conversion ratio is usually controlled to be 20-30%. A biological test is used to identify inhibitory effects of compounds on JAKs.
(§4) Compound powder was dissolved in DMSO, sealed and stored in a freezer under −20° C. The in-house compound Ref1 was used as a positive control for JAK1, JAK2 and Tyk2 tests, and Ref2 was used as a positive control for JAK3 tests.
(§5) S2.8. Assay buffer: 20 mM HEPES buffer, pH 7.4, 10 mM magnesium chloride, 0.01% bovine serum albumin BSA, 0.0005% Tween-20 and 1 mM dithiothreitol solution.
(§6) S2.9. Stop buffer: 180 mM HEPES buffer, 20 mM ethylenediaminetetraacetic acid and 0.2% coating reagent 3.
(§7) S2.10. Separation buffer: 100 mM HEPES buffer, 10 mM ethylenediaminetetraacetic acid, 0.0005% Tween 20, 0.1% coating reagent 3 and 1% dimethyl sulfoxide.
(§8) The compound was dissolved in dimethyl sulfoxide and diluted to 10 mM concentration, a certain volume of solution was taken and diluted to 0.6 mM concentration, 10 μL of the 0.6 mM dilution was added to a 384-well microplate, and then was diluted 3-fold with a total of 8 concentration points.
(§9) Positive control (HPE1): Ref1, final concentration: 10 μM […]
(§10) Negative control (ZPE): DMSO, final content: 1.6%
(§11) Compounds: maximum final concentration: 10 μM; 3-fold dilution, 8 concentration points and 2 duplicates.
(§12) S4.1. 250 nL of the compound was added to each well of the assay microplate by using ECHO, and centrifuged at 1000 rpm for 1 minute.
(§13) S4.2. 5 μL of the assay buffer was added and agitated for a few seconds to fully dissolve the compound.
(§14) S4.3. 5 μL of 3× substrate solution and 5 μL of 3× kinase solution were added and centrifuged at 800 rpm for 1 minute.
(§15) S4.4. Final concentrations of JAK1, JAK2, JAK3 and Tyk2 kinases in the reaction system were 20 nM, 1 nM, 1 nM and 1 nM respectively.
(§16) S4.5. Incubation at room temperature, where kinases had time differences, and different batches of kinases had time differences.
(§17) S4.6. When 20%-30% of the reaction completed, 15 μL of stop buffer was added to stop the reaction, and centrifuged at 1000 rpm for 2 minutes.
(§18) S4.7. The microplates were placed on EZ Reader for reading.
(§19) S4.8. Readings on EZ Reader were calculated by using a peak height, where product conversion ratio (%)=product/(product+substrate)*100.
(§20) 5. Data Processing: IC50 calculation
(§21) A graphing software Xlfit was used to form a concentration curve of the test compound, and an IC50 value was calculated.
(§22) “A” means “≥10 μM”; “B” means “≥1 μM and <10 μM”; “C” means “≥0.1 μM and <1 μM”; and “D” means “<0.1 μM”.

[2] = molecular target: JAK1 (Homo sapiens, UniProt P23458); assay: JAK kinase inhibition assay (EZ Reader, peptide substrate phosphorylation) - JAK1; format: biochemical; details: JAK1 kinase 20 nM; 8 concentration points, max 10 μM
Text: as §1, §2, §3, §4, §5, §6, §7, §8, §9, §10, §11, §12, §13, §14, §15, §16, §17, §18, §19, §20, §21, §22

Sequence of Tyk2 (P29597 whole entry): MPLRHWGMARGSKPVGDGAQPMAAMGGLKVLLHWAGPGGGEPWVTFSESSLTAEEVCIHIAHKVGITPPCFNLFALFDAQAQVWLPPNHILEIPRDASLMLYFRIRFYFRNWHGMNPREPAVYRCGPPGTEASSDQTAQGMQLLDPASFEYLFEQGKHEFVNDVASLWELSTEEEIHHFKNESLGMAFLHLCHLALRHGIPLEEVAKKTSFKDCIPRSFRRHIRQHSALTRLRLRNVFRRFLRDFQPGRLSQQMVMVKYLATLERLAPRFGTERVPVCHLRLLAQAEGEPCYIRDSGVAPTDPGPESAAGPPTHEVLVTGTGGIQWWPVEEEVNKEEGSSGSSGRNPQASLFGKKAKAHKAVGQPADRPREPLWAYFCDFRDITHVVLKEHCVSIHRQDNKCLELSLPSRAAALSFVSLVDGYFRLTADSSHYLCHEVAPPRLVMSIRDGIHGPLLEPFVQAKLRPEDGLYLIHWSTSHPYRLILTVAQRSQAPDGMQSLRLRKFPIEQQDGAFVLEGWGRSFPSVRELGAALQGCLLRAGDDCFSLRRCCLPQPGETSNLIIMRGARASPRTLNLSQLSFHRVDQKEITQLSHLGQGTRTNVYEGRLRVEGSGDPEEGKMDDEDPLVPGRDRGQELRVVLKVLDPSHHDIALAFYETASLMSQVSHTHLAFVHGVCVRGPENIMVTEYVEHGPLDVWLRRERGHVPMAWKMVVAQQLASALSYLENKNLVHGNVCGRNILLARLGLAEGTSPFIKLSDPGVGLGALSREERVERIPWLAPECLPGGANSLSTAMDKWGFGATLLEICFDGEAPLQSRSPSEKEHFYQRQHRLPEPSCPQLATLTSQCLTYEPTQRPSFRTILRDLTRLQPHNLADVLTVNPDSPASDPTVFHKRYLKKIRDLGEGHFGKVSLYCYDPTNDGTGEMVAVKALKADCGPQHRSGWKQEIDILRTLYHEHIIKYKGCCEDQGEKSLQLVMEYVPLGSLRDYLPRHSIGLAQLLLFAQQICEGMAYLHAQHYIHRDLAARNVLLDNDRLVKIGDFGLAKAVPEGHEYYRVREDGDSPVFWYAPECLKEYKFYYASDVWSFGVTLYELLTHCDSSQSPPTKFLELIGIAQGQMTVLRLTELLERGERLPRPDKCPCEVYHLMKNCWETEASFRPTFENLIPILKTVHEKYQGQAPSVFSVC
Sequence of JAK1 (P23458 whole entry): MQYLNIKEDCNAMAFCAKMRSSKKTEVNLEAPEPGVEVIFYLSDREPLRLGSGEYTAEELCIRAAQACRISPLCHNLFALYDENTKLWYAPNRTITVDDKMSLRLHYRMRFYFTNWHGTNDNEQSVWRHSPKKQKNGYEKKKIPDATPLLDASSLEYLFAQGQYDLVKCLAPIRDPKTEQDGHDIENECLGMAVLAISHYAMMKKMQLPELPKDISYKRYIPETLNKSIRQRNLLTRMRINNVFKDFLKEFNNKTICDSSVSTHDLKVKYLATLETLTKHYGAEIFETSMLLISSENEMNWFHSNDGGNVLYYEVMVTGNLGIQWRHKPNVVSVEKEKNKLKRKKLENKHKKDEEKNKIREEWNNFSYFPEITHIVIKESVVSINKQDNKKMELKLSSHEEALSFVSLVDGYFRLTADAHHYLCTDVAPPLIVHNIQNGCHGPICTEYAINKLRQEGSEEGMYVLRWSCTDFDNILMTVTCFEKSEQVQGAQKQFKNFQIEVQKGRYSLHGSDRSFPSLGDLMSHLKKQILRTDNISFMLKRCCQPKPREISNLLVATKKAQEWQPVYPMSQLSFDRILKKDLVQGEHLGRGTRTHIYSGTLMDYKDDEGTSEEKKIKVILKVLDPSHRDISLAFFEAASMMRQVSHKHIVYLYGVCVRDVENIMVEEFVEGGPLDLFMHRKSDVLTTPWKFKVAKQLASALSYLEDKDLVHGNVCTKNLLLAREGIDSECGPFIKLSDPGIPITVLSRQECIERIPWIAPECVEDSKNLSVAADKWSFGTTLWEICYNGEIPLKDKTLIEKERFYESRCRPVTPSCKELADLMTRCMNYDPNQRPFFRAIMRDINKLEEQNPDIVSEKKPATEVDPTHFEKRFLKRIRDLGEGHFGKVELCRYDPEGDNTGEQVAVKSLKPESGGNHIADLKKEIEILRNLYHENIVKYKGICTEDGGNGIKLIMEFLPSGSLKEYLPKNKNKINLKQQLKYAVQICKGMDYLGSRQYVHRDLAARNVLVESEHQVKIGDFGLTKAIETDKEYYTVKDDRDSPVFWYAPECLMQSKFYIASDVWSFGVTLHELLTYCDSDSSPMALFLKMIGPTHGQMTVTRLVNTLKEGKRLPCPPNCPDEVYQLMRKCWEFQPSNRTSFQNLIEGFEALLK

| SMILES | IC50 [1] [µM] | IC50 [2] [µM] |
| --- | --- | --- |
| Cn1cc(Nc2nccc(-c3ccc(NC(=O)CO)cc3)n2)cn1 [TDM-180791, 2-hydroxy-N-(4-(2-((1-methyl-1H-pyrazol-4-yl)amino)pyrimidin-4-yl)phenyl)acetamide] | 1 to 10 | 0.1 to 1 |
| Cn1cc(Nc2nccc(-c3ccc(NC(=O)CC(F)(F)F)c4[nH]ncc34)n2)cn1 [TDM-180900, 3,3,3-trifluoro-N-(4-(2-((1-methyl-1H-pyrazol-4-yl)amino)pyrimidin-4-yl)-1H-indazol-7-yl)propionamide] | 0.1 to 1 | < 0.1 |
| Cn1cc(Nc2nccc(-c3ccc(NS(=O)(=O)CCc4ccccc4)cc3)n2)cn1 [TDM-180894, N-(4-(2-((1-methyl-1H-pyrazol-4-yl)amino)pyrimidin-4-yl)phenyl)-2-phenylethane-1-sulfonamide] | 0.1 to 1 | 0.1 to 1 |
| Cn1cc(Nc2nccc(-n3ccc4c(NC(=O)CC5CC5)cccc43)n2)cn1 [TDM-180911, 2-cyclopropyl-N-(1-(2-((1-methyl-1H-pyrazol-4-yl)amino)pyrimidin-4-yl)-1H-indol-4-yl)acetamide] | 1 to 10 | 0.1 to 1 |
| Cn1cc(Nc2nccc(-c3cnc(NS(=O)(=O)Cc4ccccc4)c(F)c3)n2)cn1 [TDM-180913, N-(3-fluoro-5-(2-((1-methyl-1H-pyrazol-4-yl)amino)pyrimidin-4-yl)pyridin-2-yl)-1-phenylmethanesulfonamide] | ≥ 10 | ≥ 10 |
| COCCC(=O)Nc1ccc(-c2ccnc(Nc3cnn(C)c3)n2)cc1 [TDM-180799, 3-methoxy-N-(4-(2-((1-methyl-1H-pyrazol-4-yl)amino)pyrimidin-4-yl)phenyl)propanamide] | 1 to 10 | 0.1 to 1 |
| Cn1cc(Nc2nccc(-c3ccc(NC(=O)CC#N)c4[nH]ncc34)n2)cn1 [TDM-180898, 2-cyano-N-(4-(2-((1-methyl-1H-pyrazol-4-yl)amino)pyrimidin-4-yl)-1H-indazole-7-yl)acetamide] | 0.1 to 1 | 0.1 to 1 |
| CC(=O)N1CCN(Cc2ccc(-c3ccnc(Nc4cnn(C)c4)n3)cc2)CC1 [TDM-180789, 1-(4-(4-(2-((1-methyl-1H-pyrazol-4-yl)amino)pyrimidin-4-yl)benzyl)piperazin-1-yl)ethan-1-one] | 1 to 10 | ≥ 10 |
| CCCS(=O)(=O)Nc1ccc(-c2ccnc(Nc3cnn(C)c3)n2)cc1 [TDM-180893, N-(4-(2-((1-methyl-1H-pyrazol-4-yl)amino)pyrimidin-4-yl)phenyl)propane-1-sulfonamide] | 0.1 to 1 | 0.1 to 1 |
| Cn1cc(Nc2nccc(-c3ccc(NC(=O)CC4CC4)c4[nH]ccc34)n2)cn1 [TDM-180920] | 0.1 to 1 | 0.1 to 1 |
| Cc1cc(-c2ccnc(Nc3cnn(C)c3)n2)ccc1C(=O)NCC#N [TDM-180784, N-(cyanomethyl)-2-methyl-4-(2-((1-methyl-1H-pyrazol-4-yl)amino)pyrimidin-4-yl)benzamide] |  | 0.1 to 1 |
| Cn1cc(Nc2nccc(-c3ccc(CN4CCOCC4)cc3)n2)cn1 [TDM-180787, N-(1-methyl-1H-pyrazol-4-yl)-4-(4-(morpholinomethyl)phenyl)pyrimidine-2-amine] | 1 to 10 | 1 to 10 |
| Cn1cc(Nc2nccc(-c3ccc(NC(=O)CC(F)(F)F)c4cc[nH]c34)n2)cn1 [TDM-180924, 3,3,3-trifluoro-N-(7-(2-((1-methyl-1H-pyrazol-4-yl)amino)pyrimidin-4-yl)-1H-indol-4-yl)propanamide] | 1 to 10 | 0.1 to 1 |
| Cn1cc(Nc2nccc(-c3ccc(NS(=O)(=O)Cc4ccccc4)nc3)n2)cn1 [TDM-180897, N-(5-(2-((1-methyl-1H-pyrazol-4-yl)amino)pyrimidin-4-yl)pyridin-2-yl)-1-phenylmethanesulfonamide] | 0.1 to 1 | 0.1 to 1 |
| Cn1cc(Nc2nccc(-c3ccc(NC(=O)CC#N)c4[nH]ccc34)n2)cn1 [TDM-180867, 2-cyano-N-(4-(2-((1-methyl-1H-pyrazol-4-yl)amino)pyrimidin-4-yl)-1H-indol-7-yl)acetamide] | 0.1 to 1 | 0.1 to 1 |

The remaining lines, values ahead:

| IC50 [1] [µM] | IC50 [2] [µM] | SMILES |
| --- | --- | --- |
| 1 to 10 | 0.1 to 1 | Cn1cc(Nc2nccc(-c3cnc(NC(=O)C4CC4(F)F)cn3)n2)cn1 (centres unmarked) [TDM-180892, 2,2-difluoro-N-(5-(2-((1-methyl-1H-pyrazol-4-yl)amino)pyrimidin-4-yl)pyrazin-2-yl)cyclopropane-1-formamide] |
| 1 to 10 | 0.1 to 1 | Cn1cc(Nc2nccc(-c3cnc(NC(=O)CC(F)(F)F)c(F)c3)n2)cn1 [TDM-180889, 3,3,3-trifluoro-N-(3-fluoro-S-(2-((1-methyl-1H-pyrazol-4-yl)amino)pyrimidin-4-yl)pyridin-2-yl)propanamide] |
| 1 to 10 | 1 to 10 | Cn1cc(Nc2nccc(-c3ccc(C(=O)NC4CC4(F)F)nc3)n2)cn1 (centres unmarked) [TDM-180781, N-(2,2-difluorocyclopropyl)-5-(2-((1-methyl-1H-pyrazol-4-yl)amino)pyrimidin-4-yl)pyridinecarboxamide] |
| 1 to 10 | 1 to 10 | Cn1cc(Nc2nccc(-c3ccc(NC(=O)C4(C)CC4)nc3)n2)cn1 [TDM-180853, 1-methyl-N-(5-(2-((1-methyl-1H-pyrazol-4-yl)amino)pyrimidin-4-yl)pyridin-2-yl)cyclopropane-1-carboxamide] |
| 0.1 to 1 | < 0.1 | Cn1cc(Nc2nccc(-c3cnc(NC(=O)C4CC4(F)F)nc3)n2)cn1 (centres unmarked) [TDM-180886, 2,2-difluoro-N-(2-((1-methyl-1H-pyrazol-4-yl)amino)-[4,5′-bipyrimidin]-2′-yl)cyclopropane-1-carboxamide] |
| 0.1 to 1 | 0.1 to 1 | Cn1cc(Nc2nccc(-c3ccc(NC(=O)C4CC4)c4[nH]ncc34)n2)cn1 [TDM-180884, N-(4-(2-((1-methyl-1H-pyrazol-4-yl)amino)pyrimidin-4-yl)-1H-indazol-7-yl)cyclopropanemethane] |
| ≥ 10 | ≥ 10 | Cn1cc(Nc2nccc(-c3cnc(NS(=O)(=O)Cc4ccccc4)nc3)n2)cn1 [TDM-180921, N-(2-((1-methyl-1H-pyrazol-4-yl)amino)-[4,5′-bipyrimidin]-2′-yl)-1-phenylmethanesulfonamide] |
| ≥ 10 | 1 to 10 | Cn1cc(Nc2nccc(-c3ccc(NC(=O)C4CC4(F)F)c4cc[nH]c34)n2)cn1 (centres unmarked) [TDM-180929, 2,2-difluoro-N-(7-(2-((1-methyl-1H-pyrazol-4-yl)amino)pyrimidin-4-yl)-1H-indol-4-yl)cyclopropane-1-carboxamide] |
| 1 to 10 | 1 to 10 | Cn1cc(Nc2nccc(-c3cnc(NC(=O)C4CC4)c(F)c3)n2)cn1 [TDM-180891, N-(3-fluoro-5-(2-((1-methyl-1H-pyrazol-4-yl)amino)pyrimidin-4-yl)pyridin-2-yl)cyclopropanecarboxamide] |
| 0.1 to 1 | 0.1 to 1 | Cn1cc(Nc2nccc(-c3cnc(NC(=O)C4CC4(F)F)c(F)c3)n2)cn1 (centres unmarked) [TDM-180888, 2,2-difluoro-N-(3-fluoro-5-(2-((1-methyl-1H-pyrazol-4-yl)amino)pyrimidin-4-yl)pyridin-2-yl)cyclopropanecarboxamide] |
| < 0.1 | < 0.1 | Cn1cc(Nc2nccc(-c3ccc(NC(=O)[C@@H]4CC4(F)F)cc3)n2)cn1 [TDM-180934] |
| 1 to 10 | 1 to 10 | Cn1cc(Nc2nccc(-c3ccc(C(=O)NC4CC4)nc3)n2)cn1 [TDM-180826, N-cyclopropyl-5-(2-((1-methyl-1H-pyrazol-4-yl)amino)pyrimidin-4-yl)pyridinecarboxamide] |
